test system: IL-6; assay: Anti-inflammation efficacy in THP-1 in vitro assay: IL-6 in supernatant of PMA-differentiated, LPS-stimulated THP-1 monocytes (BD Elisa kit); type: cell-based; settings: Table 1, LPS 1 μg/ml, 24 hours incubation, concentration of active(s) as given per example, lower = higher anti-inflammatory potential
Procedure: The following procedure was used to test the anti-inflammation efficacy of the various actives alone as well as in combination. In the examples, HR means hexyl resorcinol, DHA means docosahexaenoic acid. • (i) 5×10^5 THP-1 monocytes were placed into 24-well plates, with 100 nM […] in the culture media to differentiate the cells. • (ii) After 72 hours differentiation, treatments as follows were applied to the cells. […] (2) LPS-1 μg/ml; (3) Dex-50 nM; (4) DHA-200 μM; (5) DHA-100 μM; (6) DHA-20 μM; (7) HR-50 μM; (8) HR-25 μM; (9) HR-100 μM; […] (11) DHA-100 μM+HR-50 μM; (12) DHA-100 μM+HR-25 μM; (13) DHA-20 μM+HR-100 μM (14) DHA-20 μM+HR-10 μM. • (iii) After 24 hours incubation the supernatants were collected. • (iv) Then IL-6 concentration was tested in the supernatant by BD Elisa kit. The lower the percentage, the higher the anti-inflammatory potential. […] Further information about the experiment nos 12 to 24 is as follows: • Example 12: […] Combination of 50 μM DHA and 12.5 μM of HR. • Example 23: […] Combination of 50 μM DHA and 12.5 μM of ZnCl2. • Example 31: […] Combination of 12.5 μM DHA and 3.125 μM of ZnCl2. Experiments were carried out, according to the procedure described earlier, at various concentrations of DHA along with certain other actives outside the invention viz. BOP (benzoyl peroxide) and SDS (sodium dodecyl sulphate). These actives have been disclosed as additional ingredients in EP0138480 A1. The data below is expressed in % IL-6 inhibition rate in Table-3 below. • Example 33, 34, 35, 36: […] Combination of 50 μM DHA and 12.5 μM of BPO. • Example 43: […] Combination of 12.5 μM DHA and 3.125 μM of BPO. • Example 45, 46, 47, 48: […] Combination of 50 μM DHA and 12.5 μM of SDS. • Example 51: […] Combination of 12.5 μM DHA and 3.125 μM of SDS.

Q: For `CC/C=C\C/C=C\C/C=C\C/C=C\C/C=C\C/C=C\CCC(=O)O` [Example 3, docosahexaenoic acid], which “concentration of IL-6 as a % of that obtained for LPS (% of LPS)” value (shortened to “concentration of IL-6 as a % … (% of LPS)”) is on record?
A: Its value is 58.5%.

Q: How did the “concentration of IL-6 as a % … (% of LPS)” value turn out when `CCCCCCc1ccc(O)cc1O` [Example 5, hexyl resorcinol] was run?
A: The value was 54.5%.

Q: `CCCCCCc1ccc(O)cc1O` [Example 4, hexyl resorcinol] was tested. Which “concentration of IL-6 as a % … (% of LPS)” value did it give?
A: Its value is 41.1%.

Q: Which “concentration of IL-6 as a % … (% of LPS)” value does the source give for `CCCCCCc1ccc(O)cc1O` [Example 6, hexyl resorcinol] here?
A: Its value is 41.1%.

Q: With `CC/C=C\C/C=C\C/C=C\C/C=C\C/C=C\C/C=C\CCC(=O)O` [Example 2, docosahexaenoic acid] as the compound, how does the “concentration of IL-6 as a % … (% of LPS)” value read?
A: Its value is 14.7%.

Q: `CCCCCCc1ccc(O)cc1O` [Example 7, hexyl resorcinol] was tested. Which “concentration of IL-6 as a % … (% of LPS)” value did it give?
A: Its value is 63.1%.

same assay, conditions: Table 2, LPS 1 μg/mL, DHA, HR, ZnCl2 alone and combined, concentration per example

Q: Which “% of LPS (IL-6)” value does the source give for `CC/C=C\C/C=C\C/C=C\C/C=C\C/C=C\C/C=C\CCC(=O)O` [Example 15, docosahexaenoic acid] here?
A: Its value is 48.8%.

Q: For `CCCCCCc1ccc(O)cc1O` [Example 17, hexyl resorcinol], which “% of LPS (IL-6)” value is on record?
A: Its value is 43.0%.

Q: For `CCCCCCc1ccc(O)cc1O` [Example 20, hexyl resorcinol], which “% of LPS (IL-6)” value is on record?
A: Its value is 66.4%.

Q: How did the “% of LPS (IL-6)” value turn out when `CC/C=C\C/C=C\C/C=C\C/C=C\C/C=C\C/C=C\CCC(=O)O` [Example 13, docosahexaenoic acid] was run?
A: The value was 9.9%.

Q: Which “% of LPS (IL-6)” value does the source give for `[Cl-].[Cl-].[Zn+2]` [Example 27, Zinc chloride] here?
A: Its value is 97.7%.

Q: `[Cl-].[Cl-].[Zn+2]` [Example 26, Zinc chloride] was tested. Which “% of LPS (IL-6)” value did it give?
A: Its value is 96.3%.

Q: For `CC/C=C\C/C=C\C/C=C\C/C=C\C/C=C\C/C=C\CCC(=O)O` [Example 16, docosahexaenoic acid], which “% of LPS (IL-6)” value is on record?
A: The value was 63.1%.

Q: Which “% of LPS (IL-6)” value does the source give for `CCCCCCc1ccc(O)cc1O` [Example 19, hexyl resorcinol] here?
A: Its value is 60.3%.

Q: For `[Cl-].[Cl-].[Zn+2]` [Example 28, Zinc chloride], which “% of LPS (IL-6)” value is on record?
A: The value was 91.6%.

Q: `CCCCCCc1ccc(O)cc1O` [Example 18, hexyl resorcinol] was tested. Which “% of LPS (IL-6)” value did it give?
A: Its value is 55.4%.

Q: For `CC/C=C\C/C=C\C/C=C\C/C=C\C/C=C\C/C=C\CCC(=O)O` [Example 14, docosahexaenoic acid], which “% of LPS (IL-6)” value is on record?
A: The value was 29.0%.

Q: For `[Cl-].[Cl-].[Zn+2]` [Example 25, Zinc chloride], which “% of LPS (IL-6)” value is on record?
A: The value was 93.4%.

same assay, conditions: Table 3, LPS 1 μg/mL, DHA, BPO, SDS alone and combined, concentration per example

Q: How did the “% of LPS (IL-6)” value turn out when `CC/C=C\C/C=C\C/C=C\C/C=C\C/C=C\C/C=C\CCC(=O)O` [Example 36, docosahexaenoic acid] was run?
A: The value was 72.0%.

Q: `CC/C=C\C/C=C\C/C=C\C/C=C\C/C=C\C/C=C\CCC(=O)O` [Example 34, docosahexaenoic acid] was tested. Which “% of LPS (IL-6)” value did it give?
A: Its value is 36.0%.

Q: How did the “% of LPS (IL-6)” value turn out when `O=C(OOC(=O)c1ccccc1)c1ccccc1` [Example 40, benzoyl peroxide] was run?
A: Its value is 95.1%.

Q: For `O=C(OOC(=O)c1ccccc1)c1ccccc1` [Example 37, benzoyl peroxide], which “% of LPS (IL-6)” value is on record?
A: Its value is 103.4%.

Q: `O=C(OOC(=O)c1ccccc1)c1ccccc1` [Example 38, benzoyl peroxide] was tested. Which “% of LPS (IL-6)” value did it give?
A: The value was 100.6%.

Q: How did the “% of LPS (IL-6)” value turn out when `CC/C=C\C/C=C\C/C=C\C/C=C\C/C=C\C/C=C\CCC(=O)O` [Example 33, docosahexaenoic acid] was run?
A: The value was 10.7%.

Q: `CC/C=C\C/C=C\C/C=C\C/C=C\C/C=C\C/C=C\CCC(=O)O` [Example 35, docosahexaenoic acid] was tested. Which “% of LPS (IL-6)” value did it give?
A: The value was 56.8%.

Q: How did the “% of LPS (IL-6)” value turn out when `O=C(OOC(=O)c1ccccc1)c1ccccc1` [Example 39, benzoyl peroxide] was run?
A: Its value is 102.7%.

same assay, conditions: Table 3, LPS 1 μg/mL, DHA, BPO, SDS alone and combined, concentration per example, sulphate

Q: How did the “% of LPS (IL-6)” value turn out when `CCCCCCCCCCCCOS(=O)(=O)[O-].[Na+]` [Example 46, sodium dodecyl sulphate] was run?
A: The value was 86.1%.

Q: For `CCCCCCCCCCCCOS(=O)(=O)[O-].[Na+]` [Example 47, sodium dodecyl sulphate], which “% of LPS (IL-6)” value is on record?
A: The value was 81.3%.

Q: `CCCCCCCCCCCCOS(=O)(=O)[O-].[Na+]` [Example 45, sodium dodecyl sulphate] was tested. Which “% of LPS (IL-6)” value did it give?
A: The value was 84.6%.

Q: For `CCCCCCCCCCCCOS(=O)(=O)[O-].[Na+]` [Example 48, sodium dodecyl sulphate], which “% of LPS (IL-6)” value is on record?
A: The value was 80.5%.
